Measurements published in patent US10189836B2, “Therapeutic compounds, compositions and methods of use thereof” (Genentech, Inc., priority 2015, dated 2019).

target: isolated recombinant JAK1 kinase domain (Homo sapiens (Human), UniProt P23458); experiment: JAK1 enzyme assay (Caliper LabChip, Ki); format: biochemical; details: isolated recombinant JAK1 kinase domain, 1.5 nM enzyme, ATP 25 μM
Sequence (P23458 875-1153): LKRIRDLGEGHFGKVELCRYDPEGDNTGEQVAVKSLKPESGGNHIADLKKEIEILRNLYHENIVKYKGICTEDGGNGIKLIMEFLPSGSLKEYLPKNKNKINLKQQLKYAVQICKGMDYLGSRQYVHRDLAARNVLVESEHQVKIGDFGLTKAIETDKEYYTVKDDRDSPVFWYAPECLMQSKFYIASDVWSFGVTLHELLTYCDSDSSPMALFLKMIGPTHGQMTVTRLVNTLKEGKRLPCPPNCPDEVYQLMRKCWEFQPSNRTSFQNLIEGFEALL

Structure (SMILES) | Ki
CN1CCN(C(=O)Cn2cc(Nc3nc4c(C5=CC6CCC(C5)N6C(=O)CCC(F)(F)F)cccn4n3)cn2)CC1 (stereo not drawn) [Example 13, 4,4,4-trifluoro-1-[3-[2-[[1-[2-(4-methylpiperazin-1-yl)-2-oxo-ethyl]pyrazol-4-yl]amino]-[1,2,4]triazolo[1,5-a]pyridin-8-yl]-8-azabicyclo[3.2.1]oct-3-en-8-yl]butan-1-one] | 0.9 nM
CN1CCN(C(=O)Cn2cc(Nc3nc4c(C5=CC6CCC(C5)N6C(=O)CCC(F)(F)F)cccn4n3)cn2)CC1 (stereo not drawn) [Example 18, 4,4,4-trifluoro-1-[3-[2-[[1-[2-(4-methylpiperazin-1-yl)-2-oxo-ethyl]pyrazol-4-yl]amino]-[1,2,4]triazolo[1,5-a]pyridin-8-yl]-8-azabicyclo[3.2.1]oct-3-en-8-yl]butan-1-one] | 1.5 nM
CN1CCN(C(=O)Cn2cc(Nc3nc4c(N5CC6CCC(C5)N6C(=O)C5CC6C(C5)C6(F)F)cccn4n3)cn2)CC1 (stereo not drawn) [Example 57, 2-[4-[[8-[8-(6,6-difluorobicyclo[3.1.0]hexane-3-carbonyl)-3,8-diazabicyclo[3.2.1]octan-3-yl]-[1,2,4]triazolo[1,5-a]pyridin-2-yl]amino]pyrazol-1-yl]-1-(4-methylpiperazin-1-yl)ethanone] | 4.8 nM
CN1CCN(C(=O)Cn2cc(Nc3nc4c(N5CC6CCC(C5)N6C(=O)c5ccccc5)cccn4n3)cn2)CC1 [Example 70, 2-[4-[[8-(8-benzoyl-3,8-diazabicyclo[3.2.1]octan-3-yl)-[1,2,4]triazolo[1,5-a]pyridin-2-yl]amino]pyrazol-1-yl]-1-(4-methylpiperazin-1-yl)ethanone] | 4.2 nM
CN1CCN(C(=O)Cn2cc(Nc3nc4c(N5CC6CCC(C5)N6CCCC(F)(F)F)cccn4n3)cn2)CC1 [Example 73, 1-(4-methylpiperazin-1-yl)-2-[4-[[8-[8-(4,4,4-trifluorobutyl)-3,8-diazabicyclo[3.2.1]octan-3-yl]-[1,2,4]triazolo[1,5-a]pyridin-2-yl]amino]pyrazol-1-yl]ethanone] | 8.8 nM
CN1CCN(C(=O)Cn2cc(Nc3nc4c(N5C[C@H]6CC[C@@H](C5)[C@H]6OCc5ccncc5)cccn4n3)cn2)CC1 [Example 144, 1-(4-methylpiperazin-1-yl)-2-[4-[[8-[rac-(1S,5R)-8-(4-pyridylmethoxy)-3 - azabicyclo[3.2.1]octan-3-yl]-[1,2,4]triazolo[1,5-a]pyridin-2-yl]amino]pyrazol-1-yl]ethanone] | 0.8 nM
CN1CCN(C(=O)Cn2cc(Nc3nc4c(N5C[C@H]6CC[C@@H](C5)[C@H]6NCCC(F)(F)F)cccn4n3)cn2)CC1 [Example 145, 1-(4-methylpiperazin-1-yl)-2-(4-((8-((1R,5 S,8r)-8-((3,3,3-trifluoropropyl)amino)-3-azabicyclo[3.2.1]octan-3-yl)-[1,2,4]triazolo[1,5-a]pyridin-2-yl)amino)-1H-pyrazol-1-yl)ethanone] | 1.3 nM
Cc1ccc(CO[C@H]2[C@@H]3CC[C@H]2CN(c2cccn4nc(Nc5cnn(CC(=O)N6CCN(C)CC6)c5)nc24)C3)cn1 [Example 151, 1-(4-methylpiperazin-1-yl)-2-[4-[[8-[rac-(1S,5R)-8-[(6-methyl-3-pyridyl)methoxy]-3-azabicyclo[3.2.1]octan-3-yl]-[1,2,4]triazolo[1,5-a]pyridin-2-yl]amino]pyrazol-1-yl]ethanone] | 0.6 nM
CN1CCN(C(=O)Cn2cc(Nc3nc4c(N5C[C@H]6CC[C@@H](C5)[C@@H]6OCc5ccncc5)cccn4n3)cn2)CC1 [Example 189, 1-(4-methylpiperazin-1-yl)-2-(4-((8-((1R,5 S,8s)-8-(pyridin-4-ylmethoxy)-3-azabicyclo[3.2.1]octan-3-yl)-[1,2,4]triazolo[1,5-a]pyridin-2-yl)amino)-1H-pyrazol-1-yl)ethanone] | 0.5 nM
